Assay results published in ChEMBL document CHEMBL4020722, “Synthesis and evaluation of a series of pyridine and pyrimidine derivatives as type II c-Met inhibitors” (Bioorg Med Chem, 2017).

Columns and labels:
[1] = tested on: EBC-1; assay: cells; conditions: Homo sapiens, EBC-1, 72 h
[2] = tested on: HepG2; assay: cells; conditions: Homo sapiens, HepG2, 72 h
[3] = target: T1, Hepatocyte growth factor receptor (Homo sapiens, UniProt P08581); assay: Inhibition of recombinant c-MET (unknown origin) using poly (Glu, Tyr) 4:1 as substrate after 45 mins by ELISA
T1 sequence (P08581 whole entry): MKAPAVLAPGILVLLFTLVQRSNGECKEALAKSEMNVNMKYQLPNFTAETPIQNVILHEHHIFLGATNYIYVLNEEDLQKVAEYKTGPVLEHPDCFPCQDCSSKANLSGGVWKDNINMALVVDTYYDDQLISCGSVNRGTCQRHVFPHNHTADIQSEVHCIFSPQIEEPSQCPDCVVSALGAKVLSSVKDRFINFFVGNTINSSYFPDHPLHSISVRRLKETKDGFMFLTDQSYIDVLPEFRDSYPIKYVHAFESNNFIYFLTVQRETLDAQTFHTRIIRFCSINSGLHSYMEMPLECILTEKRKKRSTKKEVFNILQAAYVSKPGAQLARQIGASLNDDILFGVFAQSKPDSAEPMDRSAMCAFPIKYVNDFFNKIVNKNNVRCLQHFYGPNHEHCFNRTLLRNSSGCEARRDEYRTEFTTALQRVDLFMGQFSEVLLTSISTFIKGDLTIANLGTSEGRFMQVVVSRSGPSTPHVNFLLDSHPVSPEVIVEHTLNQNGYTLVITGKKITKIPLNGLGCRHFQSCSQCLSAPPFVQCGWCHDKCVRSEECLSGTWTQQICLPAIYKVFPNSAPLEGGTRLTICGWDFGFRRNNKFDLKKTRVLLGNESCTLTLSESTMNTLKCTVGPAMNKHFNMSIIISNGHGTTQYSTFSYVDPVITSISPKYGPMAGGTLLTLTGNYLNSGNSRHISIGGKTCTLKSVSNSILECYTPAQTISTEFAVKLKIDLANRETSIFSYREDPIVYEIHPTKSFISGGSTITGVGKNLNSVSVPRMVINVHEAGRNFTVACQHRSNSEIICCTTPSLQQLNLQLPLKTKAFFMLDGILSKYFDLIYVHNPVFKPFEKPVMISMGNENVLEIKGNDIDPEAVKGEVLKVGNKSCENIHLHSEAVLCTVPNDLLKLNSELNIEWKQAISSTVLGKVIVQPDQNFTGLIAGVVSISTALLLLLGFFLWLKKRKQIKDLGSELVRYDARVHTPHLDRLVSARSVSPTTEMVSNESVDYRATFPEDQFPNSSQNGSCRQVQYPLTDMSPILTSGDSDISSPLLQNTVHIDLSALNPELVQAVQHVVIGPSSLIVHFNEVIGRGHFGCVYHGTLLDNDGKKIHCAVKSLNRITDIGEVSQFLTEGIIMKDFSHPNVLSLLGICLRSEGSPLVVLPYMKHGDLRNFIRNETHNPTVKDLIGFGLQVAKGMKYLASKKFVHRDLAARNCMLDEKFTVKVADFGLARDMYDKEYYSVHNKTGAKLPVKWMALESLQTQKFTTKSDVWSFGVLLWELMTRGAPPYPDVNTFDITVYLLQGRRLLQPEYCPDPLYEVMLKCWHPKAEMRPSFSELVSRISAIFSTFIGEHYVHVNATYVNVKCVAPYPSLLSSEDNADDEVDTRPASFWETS

[4] = target: Platelet-derived growth factor receptor alpha (Homo sapiens, UniProt P16234); assay: Inhibition of PDGFRalpha (unknown origin) by HTRF method
Platelet-derived growth factor receptor alpha, sequence (P16234 whole entry): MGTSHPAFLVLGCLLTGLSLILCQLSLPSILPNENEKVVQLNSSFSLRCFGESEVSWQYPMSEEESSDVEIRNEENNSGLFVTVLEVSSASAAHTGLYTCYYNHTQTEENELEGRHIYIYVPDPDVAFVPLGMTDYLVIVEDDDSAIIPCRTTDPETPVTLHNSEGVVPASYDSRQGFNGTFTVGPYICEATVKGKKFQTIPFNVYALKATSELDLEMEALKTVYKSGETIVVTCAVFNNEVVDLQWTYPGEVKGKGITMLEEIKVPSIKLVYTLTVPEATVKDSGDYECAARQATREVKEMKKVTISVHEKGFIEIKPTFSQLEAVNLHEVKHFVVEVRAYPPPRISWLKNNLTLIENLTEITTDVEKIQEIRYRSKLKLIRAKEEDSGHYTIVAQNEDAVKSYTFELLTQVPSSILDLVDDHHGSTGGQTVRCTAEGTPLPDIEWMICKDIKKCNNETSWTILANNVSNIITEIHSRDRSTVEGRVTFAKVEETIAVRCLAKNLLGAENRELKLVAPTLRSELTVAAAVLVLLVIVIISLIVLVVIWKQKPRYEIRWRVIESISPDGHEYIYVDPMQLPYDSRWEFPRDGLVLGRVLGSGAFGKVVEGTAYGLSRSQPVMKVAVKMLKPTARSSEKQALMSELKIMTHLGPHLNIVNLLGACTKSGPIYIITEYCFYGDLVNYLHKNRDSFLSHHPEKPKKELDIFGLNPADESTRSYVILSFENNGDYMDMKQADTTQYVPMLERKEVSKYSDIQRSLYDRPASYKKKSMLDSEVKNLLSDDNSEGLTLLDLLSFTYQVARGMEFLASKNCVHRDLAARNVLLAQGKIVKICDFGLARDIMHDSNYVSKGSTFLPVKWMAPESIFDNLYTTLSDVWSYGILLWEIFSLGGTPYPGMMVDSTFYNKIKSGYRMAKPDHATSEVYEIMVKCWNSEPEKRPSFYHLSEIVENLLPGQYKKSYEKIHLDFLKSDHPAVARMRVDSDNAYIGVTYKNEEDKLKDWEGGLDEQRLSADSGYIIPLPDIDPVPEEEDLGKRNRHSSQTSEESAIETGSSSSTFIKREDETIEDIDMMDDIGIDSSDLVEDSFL

[5] = target: Epidermal growth factor receptor (Homo sapiens, UniProt P00533); assay: Inhibition of EGFR (unknown origin) by HTRF method
Epidermal growth factor receptor, sequence (P00533 whole entry): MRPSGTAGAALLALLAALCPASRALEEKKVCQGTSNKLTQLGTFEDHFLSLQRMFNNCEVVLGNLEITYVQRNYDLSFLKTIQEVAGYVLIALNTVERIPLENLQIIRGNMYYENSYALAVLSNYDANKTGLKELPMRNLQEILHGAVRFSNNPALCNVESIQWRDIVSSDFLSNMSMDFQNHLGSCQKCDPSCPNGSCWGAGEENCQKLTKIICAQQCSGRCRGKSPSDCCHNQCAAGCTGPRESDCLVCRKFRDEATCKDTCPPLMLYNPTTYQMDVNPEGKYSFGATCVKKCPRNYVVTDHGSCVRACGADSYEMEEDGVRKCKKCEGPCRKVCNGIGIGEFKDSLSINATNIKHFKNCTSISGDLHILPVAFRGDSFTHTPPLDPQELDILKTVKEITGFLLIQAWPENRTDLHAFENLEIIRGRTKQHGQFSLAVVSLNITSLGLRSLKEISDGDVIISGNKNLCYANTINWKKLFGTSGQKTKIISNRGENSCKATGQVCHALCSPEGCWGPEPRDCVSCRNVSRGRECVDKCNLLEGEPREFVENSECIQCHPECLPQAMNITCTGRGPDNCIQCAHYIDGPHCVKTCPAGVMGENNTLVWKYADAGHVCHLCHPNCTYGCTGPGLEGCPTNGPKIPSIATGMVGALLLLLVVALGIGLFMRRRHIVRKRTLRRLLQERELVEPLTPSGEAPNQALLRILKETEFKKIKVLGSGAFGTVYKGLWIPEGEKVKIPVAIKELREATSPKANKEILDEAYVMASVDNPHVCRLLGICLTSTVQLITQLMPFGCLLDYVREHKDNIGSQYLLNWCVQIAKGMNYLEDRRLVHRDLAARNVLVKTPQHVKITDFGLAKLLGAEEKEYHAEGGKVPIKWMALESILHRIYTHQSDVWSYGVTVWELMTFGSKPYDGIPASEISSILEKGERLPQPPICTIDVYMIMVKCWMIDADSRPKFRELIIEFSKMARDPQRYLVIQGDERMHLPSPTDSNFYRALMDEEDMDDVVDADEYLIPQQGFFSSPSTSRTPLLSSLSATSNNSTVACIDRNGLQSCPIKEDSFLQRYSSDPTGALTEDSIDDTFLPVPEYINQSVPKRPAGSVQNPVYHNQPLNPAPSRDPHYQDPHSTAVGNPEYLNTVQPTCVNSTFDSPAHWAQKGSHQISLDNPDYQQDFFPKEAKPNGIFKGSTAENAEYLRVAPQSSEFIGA

[6] = target: Mast/stem cell growth factor receptor Kit (Homo sapiens, UniProt P10721); assay: Inhibition of KIT (unknown origin) by HTRF method
[7] = target: T1, Hepatocyte growth factor receptor; conditions: 0.1 mM
[8] = target: Vascular endothelial growth factor receptor 2 (Homo sapiens, UniProt P35968)
[9] = target: Proto-oncogene tyrosine-protein kinase receptor Ret (Homo sapiens, UniProt P07949); assay: Inhibition of RET (unknown origin) by HTRF method
Proto-oncogene tyrosine-protein kinase receptor Ret, sequence (P07949 whole entry): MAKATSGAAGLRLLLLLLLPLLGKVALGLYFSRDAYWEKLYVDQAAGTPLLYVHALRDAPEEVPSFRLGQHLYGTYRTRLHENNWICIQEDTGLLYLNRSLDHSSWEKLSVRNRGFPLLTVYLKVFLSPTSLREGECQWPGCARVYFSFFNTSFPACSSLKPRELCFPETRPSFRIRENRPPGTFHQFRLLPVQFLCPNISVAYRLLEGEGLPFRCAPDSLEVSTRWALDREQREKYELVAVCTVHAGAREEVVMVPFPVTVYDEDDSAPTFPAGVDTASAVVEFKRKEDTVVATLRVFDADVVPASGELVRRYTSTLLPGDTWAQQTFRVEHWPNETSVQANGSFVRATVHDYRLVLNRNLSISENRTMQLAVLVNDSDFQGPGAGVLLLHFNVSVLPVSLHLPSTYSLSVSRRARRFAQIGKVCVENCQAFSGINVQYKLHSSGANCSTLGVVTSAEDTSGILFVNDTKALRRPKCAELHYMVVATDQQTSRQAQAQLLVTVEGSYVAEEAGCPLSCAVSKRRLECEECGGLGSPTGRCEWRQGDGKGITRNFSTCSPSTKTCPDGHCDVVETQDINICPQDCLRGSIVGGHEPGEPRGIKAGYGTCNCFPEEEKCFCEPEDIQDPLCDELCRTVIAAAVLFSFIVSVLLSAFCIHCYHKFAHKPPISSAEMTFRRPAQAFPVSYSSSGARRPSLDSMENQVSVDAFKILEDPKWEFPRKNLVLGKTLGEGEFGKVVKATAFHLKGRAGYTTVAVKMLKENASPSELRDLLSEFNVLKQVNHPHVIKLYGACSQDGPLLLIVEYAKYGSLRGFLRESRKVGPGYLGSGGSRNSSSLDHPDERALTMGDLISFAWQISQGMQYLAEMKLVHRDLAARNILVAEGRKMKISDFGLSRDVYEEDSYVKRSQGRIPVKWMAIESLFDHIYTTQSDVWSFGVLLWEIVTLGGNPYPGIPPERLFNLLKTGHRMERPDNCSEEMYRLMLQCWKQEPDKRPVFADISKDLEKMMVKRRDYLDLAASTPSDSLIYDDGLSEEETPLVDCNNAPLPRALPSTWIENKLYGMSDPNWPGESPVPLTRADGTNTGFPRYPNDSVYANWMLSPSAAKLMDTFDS

[10] = target: T2, Receptor-type tyrosine-protein kinase FLT3 (Homo sapiens, UniProt P36888); assay: Inhibition of FLT3 (unknown origin) by HTRF method
T2 sequence (P36888 whole entry): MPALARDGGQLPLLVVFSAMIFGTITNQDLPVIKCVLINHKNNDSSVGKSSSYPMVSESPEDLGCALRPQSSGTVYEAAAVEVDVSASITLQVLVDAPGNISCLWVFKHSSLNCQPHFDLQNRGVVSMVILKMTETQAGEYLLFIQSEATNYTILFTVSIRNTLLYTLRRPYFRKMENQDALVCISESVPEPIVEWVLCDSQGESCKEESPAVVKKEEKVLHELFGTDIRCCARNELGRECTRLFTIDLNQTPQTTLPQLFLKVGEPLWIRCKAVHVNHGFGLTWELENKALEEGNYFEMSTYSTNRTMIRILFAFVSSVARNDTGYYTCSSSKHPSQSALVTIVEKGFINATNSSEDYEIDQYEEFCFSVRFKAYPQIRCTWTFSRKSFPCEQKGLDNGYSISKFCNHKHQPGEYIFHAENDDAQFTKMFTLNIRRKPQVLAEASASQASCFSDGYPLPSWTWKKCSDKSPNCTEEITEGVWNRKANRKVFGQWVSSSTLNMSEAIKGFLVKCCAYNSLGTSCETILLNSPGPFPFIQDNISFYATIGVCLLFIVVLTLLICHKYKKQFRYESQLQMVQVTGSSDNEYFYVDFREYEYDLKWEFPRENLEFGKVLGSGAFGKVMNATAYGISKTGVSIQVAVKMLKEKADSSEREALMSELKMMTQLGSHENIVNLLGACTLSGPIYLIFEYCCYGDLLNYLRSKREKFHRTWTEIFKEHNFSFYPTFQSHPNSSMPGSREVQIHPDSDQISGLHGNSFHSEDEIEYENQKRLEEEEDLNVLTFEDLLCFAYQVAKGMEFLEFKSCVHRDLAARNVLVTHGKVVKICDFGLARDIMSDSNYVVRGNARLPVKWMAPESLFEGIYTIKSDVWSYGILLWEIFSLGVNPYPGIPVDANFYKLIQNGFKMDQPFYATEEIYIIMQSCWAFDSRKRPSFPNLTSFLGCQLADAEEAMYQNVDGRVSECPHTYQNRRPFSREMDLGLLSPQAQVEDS

For Nc1nccc(Oc2ccc(NC(=O)C3(C(=O)Nc4ccc(Cl)cc4)CC3)cc2F)c1Cl, the IC50 [1] was 0.967 µM and the IC50 [2] was > 1 µM.

CCOc1ccn(-c2ccc(F)cc2)c(=O)c1C(=O)Nc1ccc(Oc2ccnc(N)c2Cl)c(F)c1 [BMS-777607] was tested, and the IC50 [1] was 0.162 µM, the IC50 [3] was 0.012 µM and the IC50 [4] was 0.028 µM.

In the case of COc1ccc(NC(=O)C2(C(=O)Nc3ccc(Oc4cc(N)ncn4)c(F)c3)CC2)cc1, the IC50 [3] is reported as > 10 µM.

For Nc1nccc(Oc2ccc(NC(=O)C3(C(=O)NCc4ccc(F)cc4)CC3)cc2F)n1, the IC50 [3] was > 10 µM.

In the case of Nc1cc(Oc2ccc(NC(=O)C3(C(=O)NCc4ccc(F)cc4)CC3)cc2F)ncn1, the IC50 [3] is reported as > 10 µM.

COc1cccc2c1C(=O)c1c(O)c3c(c(O)c1C2=O)C[C@@](O)(C(=O)CO)C[C@@H]3O[C@H]1C[C@H](N)[C@H](O)[C@H](C)O1 [DOXORUBICIN] was tested, and the IC50 [1] was 0.305 µM and the IC50 [2] was 0.0987 µM.

For COc1cc2nccc(Oc3ccc(NC(=O)C4(C(=O)Nc5ccc(F)cc5)CC4)cc3)c2cc1OC [CABOZANTINIB], the IC50 [4] was > 10 µM.

Nc1nccc(Oc2ccc(NC(=O)C3(C(=O)Nc4cccc(F)c4)CC3)cc2F)c1Cl was tested, and the IC50 [1] was > 1 µM and the IC50 [2] was > 1 µM.

For Nc1nccc(Oc2ccc(NC(=O)C3(C(=O)Nc4ccc(F)cc4)CC3)cc2F)n1, the IC50 [1] was > 1 µM and the IC50 [2] was > 1 µM.

For Nc1cc(Oc2ccc(NC(=O)C3(C(=O)Nc4ccc(F)cc4)CC3)cc2F)ncn1, the IC50 [1] was > 1 µM and the IC50 [2] was > 1 µM.

Nc1cc(Oc2ccc(NC(=O)C3(C(=O)Nc4ccc(Cl)cc4)CC3)cc2F)ncn1 was tested, and the IC50 [1] was > 1 µM and the IC50 [2] was > 1 µM.

Nc1nccc(Oc2ccc(NC(=O)C3(C(=O)Nc4ccc(F)cc4)CC3)cc2F)c1Cl was tested, and the IC50 [5] was > 1 µM, the IC50 [1] was 0.127 µM and the IC50 [3] was 0.017 µM. For the same compound, the IC50 [6] was 0.279 µM, the inhibition [7] was 100% and the IC50 [4] was 0.172 µM. For the same compound, the IC50 [8] was 0.055 µM, the IC50 [9] was 0.387 µM and the IC50 [2] was > 1 µM. For the same compound, the IC50 [10] was 2.22 µM.
